ChEMBL document CHEMBL1201862, “PubChem BioAssay data set” (2004)
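A five-concentration, 48-hour dose response in 96-well plates underlies each endpoint, interpolated linearly between surrounding concentrations. At the GI50, growth is halved.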 Active and inactive are the calls of the source. Cut-off read from the data, not from the text of the source: active = GI50 up to about 1.1 µM and inactive = higher.

How the values were obtained:
Assay in all cases: NCI anticancer screen, dose series, 48 h
UACC-257 = system: UACC-257
SK-MEL-2 = system: SK-MEL-2
CAKI-1 = system: CAKI-1
DU-145 = system: DU-145
Malme-3M = system: Malme-3M
RXF 393 = system: RXF 393
HCT-15 = system: HCT-15
SK-MEL-28 = system: SK-MEL-28
HCC 2998 = system: HCC 2998
IGROV-1 = system: IGROV-1
OVCAR-5 = system: OVCAR-5
HOP-62 = system: HOP-62
MDA-N = system: MDA-N
SN12C = system: SN12C
OVCAR-3 = system: OVCAR-3
NCI-H23 = system: NCI-H23
HCT-116 = system: HCT-116
SF-295 = system: SF-295
MDA-MB-231 = system: MDA-MB-231

SMILES | GI50 (UACC-257) | GI50 (SK-MEL-2) | GI50 (CAKI-1) | GI50 (DU-145) | GI50 (Malme-3M) | GI50 (RXF 393) | GI50 (HCT-15) [µM] | GI50 (SK-MEL-28) | GI50 (HCC 2998) | GI50 (IGROV-1) | GI50 (OVCAR-5) | GI50 (HOP-62) | GI50 (MDA-N) | GI50 (SN12C) | GI50 (OVCAR-3) | GI50 (NCI-H23) | GI50 (HCT-116) | GI50 (SF-295) | GI50 (MDA-MB-231)
Cc1cc(S(=O)(=O)Nc2nc(N)nc(N3CCOCC3)n2)c(SCC(=O)O)cc1Cl | > 10 µM (inactive) | > 10 µM (inactive) | > 10 µM (inactive) | > 10 µM (inactive) | > 10 µM (inactive) | > 10 µM (inactive) | > 10 | > 10 µM (inactive) | > 10 µM (inactive) | > 10 µM (inactive) | > 10 µM (inactive) | > 10 µM (inactive) | > 10 µM (inactive) | > 10 µM (inactive) | > 10 µM (inactive) | > 10 µM (inactive) | > 10 µM (inactive) | > 10 µM (inactive) | –
CCOP(=O)(OCC)C1C(CO)OC(n2ccc(=O)[nH]c2=O)C1O (stereo unspecified) | > 100 µM (inactive) | > 100 µM (inactive) | > 100 µM (inactive) | – | > 100 µM (inactive) | > 100 µM (inactive) | > 100 | > 100 µM (inactive) | 78.7 µM (inactive) | > 100 µM (inactive) | – | > 100 µM (inactive) | > 100 µM (inactive) | > 100 µM (inactive) | > 100 µM (inactive) | – | > 100 µM (inactive) | > 100 µM (inactive) | > 100 µM (inactive)
CCCC1=NC(C(F)(F)F)(C(F)(F)F)N=C(N2CCOCC2)O1 | > 100 µM (inactive) | > 100 µM (inactive) | 63.4 µM (inactive) | > 100 µM (inactive) | > 100 µM (inactive) | > 100 µM (inactive) | > 100 | > 100 µM (inactive) | > 100 µM (inactive) | > 100 µM (inactive) | > 100 µM (inactive) | > 100 µM (inactive) | – | > 100 µM (inactive) | > 100 µM (inactive) | > 100 µM (inactive) | > 100 µM (inactive) | > 100 µM (inactive) | > 100 µM (inactive)
CCC1CCc2c(OC)ccc(OCC(=O)O)c2C1=O (stereo unspecified) | > 100 µM (inactive) | > 100 µM (inactive) | – | – | > 100 µM (inactive) | > 100 µM (inactive) | > 100 | > 100 µM (inactive) | > 100 µM (inactive) | > 100 µM (inactive) | > 100 µM (inactive) | > 100 µM (inactive) | – | > 100 µM (inactive) | > 100 µM (inactive) | > 100 µM (inactive) | – | > 100 µM (inactive) | –
O=C(Nc1ccc(Cl)cc1C(=O)O)c1ccc([N+](=O)[O-])cc1 | 18.6 µM (inactive) | 3.72 µM (inactive) | – | – | 4.95 µM (inactive) | – | 16.7 | 28.2 µM (inactive) | 11.2 µM (inactive) | 17.4 µM (inactive) | 22.5 µM (inactive) | 10.2 µM (inactive) | – | 37.2 µM (inactive) | 22.4 µM (inactive) | – | 12.2 µM (inactive) | 23.7 µM (inactive) | –
O=C(O)CCC1CCc2cccc3occ1c23 (stereo unspecified) | > 100 µM (inactive) | > 100 µM (inactive) | > 100 µM (inactive) | – | > 100 µM (inactive) | > 100 µM (inactive) | > 100 | > 100 µM (inactive) | > 100 µM (inactive) | > 100 µM (inactive) | > 100 µM (inactive) | > 100 µM (inactive) | – | > 100 µM (inactive) | > 100 µM (inactive) | > 100 µM (inactive) | > 100 µM (inactive) | > 100 µM (inactive) | –
CN(C)c1nc(N)nc(CS)n1 | > 100 µM (inactive) | 36.2 µM (inactive) | > 100 µM (inactive) | > 100 µM (inactive) | – | > 100 µM (inactive) | 56.4 | > 100 µM (inactive) | > 100 µM (inactive) | > 100 µM (inactive) | > 100 µM (inactive) | 56.1 µM (inactive) | – | > 100 µM (inactive) | > 100 µM (inactive) | > 100 µM (inactive) | > 100 µM (inactive) | 52.4 µM (inactive) | 45.6 µM (inactive)
CC(C(=O)COCc1ccccc1)P1(=O)OC(C)(C)CN1C(C)(C)C (stereo unspecified) | > 100 µM (inactive) | – | > 100 µM (inactive) | > 100 µM (inactive) | – | > 100 µM (inactive) | > 100 | – | > 100 µM (inactive) | – | 49.4 µM (inactive) | > 100 µM (inactive) | > 100 µM (inactive) | > 100 µM (inactive) | > 100 µM (inactive) | > 100 µM (inactive) | > 100 µM (inactive) | > 100 µM (inactive) | –
COc1ccc(C(=O)N2c3ccccc3N(C)n3cccc3C2CC(=O)O)cc1 (stereo unspecified) | > 100 µM (inactive) | > 100 µM (inactive) | > 100 µM (inactive) | – | > 100 µM (inactive) | > 100 µM (inactive) | > 100 | > 100 µM (inactive) | > 100 µM (inactive) | > 100 µM (inactive) | > 100 µM (inactive) | > 100 µM (inactive) | – | > 100 µM (inactive) | > 100 µM (inactive) | > 100 µM (inactive) | – | > 100 µM (inactive) | –
